Results as given in a compilation of properties of binary mixtures (doi:10.1007/s10953-014-0137-8).

Assay: xn = mol fraction of the nth substance listed
Settings: 101 kPa

CCCC[n+]1ccn(C)c1.F[B-](F)(F)F + O
Settings | electrical conductivity [S/m] | speed of sound [m/s]
293.15 K, x2 = 0.0964 | – | 1580.4
293.15 K, x2 = 0.2639 | – | 1586.2
293.15 K, x2 = 0.3058 | 1 | –
293.15 K, x2 = 0.3901 | – | 1590.2
293.15 K, x2 = 0.4991 | 1.67 | –
293.15 K, x2 = 0.5121 | – | 1596.5
293.15 K, x2 = 0.6369 | – | 1601.7
293.15 K, x2 = 0.7002 | 3.02 | 1606.4
293.15 K, x2 = 0.7456 | – | 1608.6
293.15 K, x2 = 0.7866 | – | 1609.7
293.15 K, x2 = 0.9 | – | 1602.3
293.15 K, x2 = 0.9001 | 4.22 | –
293.15 K, x2 = 0.9252 | 4.41 | 1593.6
293.15 K, x2 = 0.9496 | 4.31 | 1581.6
293.15 K, x2 = 0.9744 | 3.76 | 1559.6
298.15 K, x2 = 0.1014 | 0.595 | –
298.15 K, x2 = 0.2639 | – | 1574.3
298.15 K, x2 = 0.3058 | 1.18 | –
298.15 K, x2 = 0.3901 | – | 1579.2
298.15 K, x2 = 0.4991 | 1.97 | –
298.15 K, x2 = 0.5121 | – | 1585.1
298.15 K, x2 = 0.6369 | – | 1591.6
298.15 K, x2 = 0.7002 | 3.41 | 1596.4
298.15 K, x2 = 0.7456 | – | 1598.6
298.15 K, x2 = 0.7866 | – | 1600.5
298.15 K, x2 = 0.9 | – | 1598.5
298.15 K, x2 = 0.9001 | 4.74 | –
298.15 K, x2 = 0.9252 | 5.3 | 1592.2
298.15 K, x2 = 0.9744 | 4.22 | 1564.4
303.15 K, x2 = 0.0964 | – | 1557.7
303.15 K, x2 = 0.1014 | 0.709 | –
303.15 K, x2 = 0.2639 | – | 1563
303.15 K, x2 = 0.3058 | 1.36 | –
303.15 K, x2 = 0.3901 | – | 1567.7
303.15 K, x2 = 0.4991 | 2.2 | –
303.15 K, x2 = 0.5121 | – | 1573.8
303.15 K, x2 = 0.6369 | – | 1581.8
303.15 K, x2 = 0.7002 | 3.97 | 1586.6
303.15 K, x2 = 0.7456 | – | 1590.2
303.15 K, x2 = 0.7866 | – | 1592.6
303.15 K, x2 = 0.8493 | 5.68 | 1595.5
303.15 K, x2 = 0.9001 | 5.67 | –
303.15 K, x2 = 0.9496 | 5.39 | 1582.7
303.15 K, x2 = 0.9744 | 4.9 | 1567.9
308.15 K, x2 = 0.0964 | – | 1545.7
308.15 K, x2 = 0.1014 | 0.848 | –
308.15 K, x2 = 0.2639 | – | 1551
308.15 K, x2 = 0.3058 | 1.51 | –
308.15 K, x2 = 0.3901 | – | 1556.3
308.15 K, x2 = 0.4991 | 2.51 | –
